Experimental data reported in EP0563345B1, “NOVEL 4-ARYLPIPERAZINES AND 4-ARYLPIPERIDINES” (MCNEILAB, INC., priority 1991, dated 1993).
Where two headings read alike, the source gives them in different places.

Tests used:
[1] = target: T1, D-2 (dopamine-2) receptors (Rattus norvegicus, UniProt P61169); experiment: biochemical; format: binding, male, Wistar rats
T1 construct: The D2 assay employed a P2 fraction from the striatum, the ligand ^3H-spiperone at a concentration of 0.05 nM; from tissue; host or cells: rat striatum, P2 fraction (synaptosomal membranes), male Wistar rats
T1 sequence (P61169 whole entry): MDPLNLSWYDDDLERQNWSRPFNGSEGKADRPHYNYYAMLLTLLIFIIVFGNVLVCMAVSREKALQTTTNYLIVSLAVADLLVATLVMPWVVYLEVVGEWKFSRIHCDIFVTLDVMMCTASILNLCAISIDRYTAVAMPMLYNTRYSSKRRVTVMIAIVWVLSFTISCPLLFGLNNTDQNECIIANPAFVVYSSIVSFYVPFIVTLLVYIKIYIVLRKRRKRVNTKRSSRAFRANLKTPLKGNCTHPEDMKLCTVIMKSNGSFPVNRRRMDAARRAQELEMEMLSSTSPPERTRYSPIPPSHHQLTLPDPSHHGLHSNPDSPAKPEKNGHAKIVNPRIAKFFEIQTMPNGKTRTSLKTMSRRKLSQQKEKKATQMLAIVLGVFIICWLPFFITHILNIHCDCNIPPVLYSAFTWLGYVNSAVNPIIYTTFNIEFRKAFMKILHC
Experimental: The dopamine D2 binding activity of compounds was determined using a P2 fraction (synaptosomal membranes) prepared from male, Wistar rats.
The data from this assay were analyzed by calculating the percent inhibition of the binding of the tritiated ligands by given concentrations of the test compound. Kl values, where given, were obtained from the logit analysis of concentration-inhibition curves.

Male, Fischer 344 rats = experiment: Block of Conditioned Avoidance Responding (Rat) test (CAR); conditions: for CAR 15 mg/kg IP Administration (% change CAR) / CAR 5 mg/kg IP Administration (% change CAR): negative number = blockade of CAR; for CAR IP Administration (% change CAR) at 30 mg/kg: 30 mg/kg IP
From the text: Apparatus: Rat operant chambers, housed within sound attenuated booths, both from Capden Instruments Ltd., were used in this test. The test chamber (8" H x […] D) is constructed of aluminum and plexiglass with floor grid bars of stainless-steel (1/8" O.D.) spaced 9/16" apart. A stainless-steel operation level 1-1/2" wide projects 3/4" into the chamber and is positioned 2-2/8" above the grid floor. The shock stimulus is delivered via the grid floor by a Coulbourn Instruments solid state module. The parameters of the test and the collection of data are controlled automatically.
The rats are trained for two weeks to approach criterion levels in the avoidance test (90% avoidance rate). One-hour training sessions are run at about the same time each day for four or five days a week. The training session consists of 120 trials, with the conditioned stimuli presented every 30 sec. A trial begins with presentation of the conditioned stimuli (a light and a tone). If the rat responds by depressing the operant lever during the 15-second presentation of the conditioned stimuli, the trial is terminated and the animal is credited with a CAR. Failure to respond during the conditioned stimuli causes the presentation of the unconditioned stimulus (UCS), a 0.7 mA shock which is accompanied by a light and tone for five seconds. If the rat depressed the lever within the ten-second period, the shock and trial are terminated and an escape response recorded. If the rat fails to depress the lever during the UCS (shock), the trial is terminated after ten seconds of shock and the absence of a response is scored as a failure to escape. Intertrial level presses have no effect. If a rat performs at the 90% CAR level for two weeks, it is then run twice a week on the test schedule (see below) until baseline performance stabilized.
Trained rats are run in a one-hour session on two consecutive days at the same time and in the same test chamber each day. The sessions consist of 60 trials, one every minute. The conditioned stimuli are presented for 15 sec (maximum) and the unconditioned stimuli five sec (maximum). On Day 1, a vehicle solution is administered to the rats at a time preceding the trial run corresponding to the pretreatment time for the test compound. The route of administration and the volume of vehicle are also matched to that of the test compound.
The percent change in CAR on the drug treatment day compared to vehicle pretreatment day is the key measure. The percent change (% change) in CAR is determined using the following formula: % change CAR = ((% CAR for Day 2/% CAR for Day 1) x 100)-100 [formula]
A negative number indicates a blockade of CAR, whereas a positive number would indicate increased CAR. The test results are reported as the mean % change for the group of rats. Failure to escape, a measure of the general sedative potential of the compound, was calculated for each animal as follows: % Failures = # of Failures to Escape/# of trials [formula]
The % failures, viz., loss of escape, is also reported as a group mean. Failures to escape are monitored closely and a session is terminated if ten failures occurred.
In the Tables and formulas therein, OiPr is isopropoxy, Me is methyl, MeO is methoxy, Et is ethyl, Ph is phenyl, n-Bu is normal butyl, cC6H11 is cyclohexyl, BOC is t-butyloxycarbonyl, Ac is acetyl, and NT is not tested in that partcular test. The escape loss numbers are shown at CAR 5 mg/kg unless otherwise noted.

Male Charles-River rats = experiment: Rat Glass Bead Test (propulsive motility of the distal colon); format: in vivo; conditions: mean expulsion time of glass bead
Experimental: The rat glass bead test is used to evaluate the action of compounds on propulsive motility of the distal colon. Male Charles-River rats weighing 50-90 grams are fasted for at least 18 hours in individual cages with water provided. Groups of rats are then dosed by the indicated route at the appropriate pretreatment time. A 4 mm glass bead is then inserted 3.5 cm into the distal colon through the anus using a 4 mm diameter glass rod. Rats are then placed in open top glass jars and observed for 60 minutes. The time for expulsion of the bead is noted for each rat. Rats not expelling the bead after 60 minutes are necropsied and the presence of the bead in the colon confirmed. […] Statistical analysis is done using one way analysis of variance and Fisher's LSD comparison. A probability of less than 0.05 is considered to be statistically significant.

[2] = rat striatum P2 fraction, 3H-spiperone 0.05 nM, read-out: Receptor Binding (Ki nM) D2

Structure (SMILES) | Ki [1, 2] | CAR 15 mg/kg IP Administration (% change CAR) (Male, Fischer 344 rats) | (Escape Loss) % failures to escape (Male, Fischer 344 rats; at CAR 15 mg/kg IP) | CAR 5 mg/kg IP Administration (% change CAR) (Male, Fischer 344 rats) | (Escape Loss) % failures to escape (Male, Fischer 344 rats; at CAR 5 mg/kg IP) | further results
CC(C)Oc1ccccc1N1CCN(Cc2cccc(C(=O)N3CCC[C@H]3C(=O)OCc3ccccc3)c2)CC1 [Compound 13] | 10 nM | -4% | 0% |  |  | 
C[C@@H]1CCC[C@H](C)N1C(=O)c1cccc(CN2CCN(c3ccc(Cl)c(Cl)c3)CC2)c1 [Compound 14] | 6.5 nM | -63% | 3% |  |  | 
COc1ccc(CN2CCC(c3ccccc3OC(C)C)CC2)cc1C(=O)N1[C@H](C)CCC[C@@H]1C [Compound 15] | 43 nM | -86% | 30% |  |  | 
CC(C)Oc1ccccc1N1CCN(Cc2cccc(C(=O)N3CCC[C@H]3CO)c2)CC1 [Compound 16] | 5.1 nM | -99% | 35% |  |  | 
CC(C)Oc1ccccc1N1CCN(Cc2ccc(N)c(C(=O)N3CCCCC3)c2)CC1 [Compound 17] | 6.4 nM | -100% | 87% |  |  | 
CCOC(=O)C1CCCCN1C(=O)c1cccc(CN2CCN(c3ccccc3C)CC2)c1 (stereo not shown) [Compound 18] | 132 nM | -24% | 9% |  |  | 
CCOC(=O)C1CCCCN1C(=O)c1cccc(CN2CCN(c3ccccc3OC(C)C)CC2)c1 (stereo not shown) [Compound 19] | 4.1 nM | -97% | 46% |  |  | 
CC(C)Oc1ccccc1N1CCN(Cc2cccc(C(=O)N3CCCCC3CO)c2)CC1 (stereo not shown) [Compound 21] | 5.2 nM | -99% | 43% |  |  | 
O=C(c1cccc(CN2CCN(c3ncccn3)CC2)c1)N1CCc2ccccc21 [Compound 23] | > 1000 nM | -62% | 9% |  |  | 
CC(C)Oc1ccccc1N1CCN(Cc2cccc(C(=O)N3CCCC3CO)c2)CC1 (stereo not shown) [Compound 26] | 9 nM | -100% | 43% |  |  | 
CC(=O)Nc1ccc(CN2CCN(c3ccccc3OC(C)C)CC2)cc1C(=O)N1CCCCC1 [Compound 28] | 29 nM | -100% | 17% |  |  | 
COc1ccc(CN2CCN(c3ccccc3OC(C)C)CC2)cc1C(=O)N1CCCCC1 [Compound 29] | 32 nM |  |  | -98% | 50% | 
O=C(c1cccc(CN2CCN(c3nsc4ccccc34)CC2)c1)N1CCCCC1 [Compound 32] |  |  |  | -90% | 8% | Glass bead expulsion time (Male Charles-River rats; IP, 1.0 mg/kg): 41 min
O=C(c1cccc(CN2CCN(c3cccc4ccccc34)CC2)c1)N1CCCCC1 [Compound 35] |  | -19% | 0% |  |  | Glass bead expulsion time (Male Charles-River rats; PO, 10.0 mg/kg): 19 min
CC(C)Oc1ccccc1C1CCN(Cc2cccc(C(=O)N3CCCCC3)c2)CC1.Cl [Compound 38, 1-[3-[[4-[2-(1-Methylethoxy)phenyl]-1-piperidinyl]methyl]benzoyl]-piperidine hydrochloride] | 2.8 nM |  |  | -92% | 5% | 
CC(C)Oc1ccccc1C1CCN(Cc2cccc(C(=O)N3CCOCC3)c2)CC1 [Compound 41] | 9.6 nM |  |  | -96% | 70% | 
CCOC(=O)C1CCN(C(=O)c2cccc(CN3CCN(c4ccccc4OC(C)C)CC3)c2)CC1 [Compound 42] | 121 nM |  |  | -18% | 0% | 

Structure (SMILES) | Ki [1, 2] | CAR 15 mg/kg IP Administration (% change CAR) (Male, Fischer 344 rats) | (Escape Loss) % failures to escape (Male, Fischer 344 rats; at CAR 15 mg/kg IP) | CAR 5 mg/kg IP Administration (% change CAR) (Male, Fischer 344 rats) | (Escape Loss) % failures to escape (Male, Fischer 344 rats; at CAR 5 mg/kg IP) | further results
CC(C)Oc1ccccc1N1CCN(Cc2cccc(C(=O)N(C)CCc3ccccc3)c2)CC1 [Compound 43] | 19 nM | -77% | 0% |  |  | 
CC(C)Oc1ccccc1N1CCN(Cc2cccc(C(=O)N3CCC(=O)CC3)c2)CC1 [Compound 44] |  |  |  | -68% | 16% | Ki [1]: 42 nM
CC(C)Oc1ccccc1N1CCN(Cc2cccc(C(=O)N3CCC4(CC3)OCCO4)c2)CC1 [Compound 45] |  |  |  | -95% | 20% | Ki [1]: 20 nM
COc1ccc(OC)c(N2CCN(Cc3cccc(C(=O)N4CCCCC4)c3)CC2)c1 [Compound 46] | 592 nM |  |  | -66% | 48% | 
CC(C)Oc1ccccc1N1CCN(Cc2cccc(C(=O)N3CCN(c4ccccc4OC(C)C)CC3)c2)CC1 [Compound 50] | 171 nM |  |  | 0% | 1% | 
CC(C)Oc1ccccc1N1CCN(Cc2cccc(C(=O)N3CCOCC3)c2)CC1 [Compound 56] |  |  |  |  |  | Glass bead expulsion time (Male Charles-River rats; IP, 1.0 mg/kg): 15 min
CC(C)Oc1ccccc1N1CCN(Cc2cccc(C(=O)N3CCC4CCCCC4C3)c2)CC1 (stereo not shown) [Compound 61] | 11.4 nM |  |  | -36% | 3% | 
CC(C)Oc1ccccc1N1CCN(Cc2cccc(C(=O)N3CCN(Cc4ccccc4)CC3)c2)CC1 [Compound 64] | 40 nM |  |  |  |  | CAR IP Administration (% change CAR) at 30 mg/kg (Male, Fischer 344 rats): -23%; (Escape Loss) % failures to escape (Male, Fischer 344 rats; at CAR 30 mg/kg IP): 2%
CC(C)Oc1ccccc1N1CCN(Cc2cccc(C(=O)N3CCCCCCC3=O)c2)CC1 [Compound 67] | 10.2 nM |  |  | -28% | 7% | 
CC(C)Oc1ccccc1N1CCN(Cc2cccc(C(=O)N(C)Cc3ccccc3)c2)CC1 [Compound 74] | 13 nM |  |  | -23% | 1% | 
CC(C)Oc1ccccc1N1CCN(Cc2cccc(C(=O)Nc3ccc(F)cc3)c2)CC1 [Compound 75] | ~30 nM |  |  |  |  | CAR IP Administration (% change CAR) at 30 mg/kg (Male, Fischer 344 rats): -1%; (Escape Loss) % failures to escape (Male, Fischer 344 rats; at CAR 30 mg/kg IP): 0%
CCN1CCCC1CNC(=O)c1cccc(CN2CCN(c3ccccc3OC(C)C)CC2)c1 (stereo not shown) [Compound 76] | 13.9 nM | -75% | 0% |  |  | 
O=C(c1cccc(CN2CCN(c3cc(Cl)cc(Cl)c3)CC2)c1)N1CCCCC1 [Compound 94] | 21 nM |  |  | -43% | 3% | 
CC(C)Oc1ccccc1N1CCN(Cc2cccc(C(=O)NCCCCCCN)c2)CC1 [Compound 97] | 15 nM | -99% | 26% |  |  | 
CC(C)Oc1ccccc1N1CCN(Cc2cccc(C(=O)NCCCCCCNC(=O)OC(C)(C)C)c2)CC1 [Compound 98] | 88 nM | -8% | 0% |  |  | 
CC(C)Oc1ccccc1N1CCN(Cc2cccc(S(=O)(=O)N3CCCC3)c2)CC1 [Compound 106] | 196 nM |  |  | -27% | 0% | 
CC(C)Oc1ccccc1N1CCN(Cc2cccc(S(=O)(=O)N3CCC(O)CC3)c2)CC1 [Compound 107, 1-[3-[[4[2-(1-Methylethoxy)phenyl]-1-piperazinyl]methyl]phenylsulfonyl]-4-hydroxypiperidine] | 69 nM |  |  | -95% | 5% | 
